# Assay results reported in US12168003B2, “Selective inhibition of T follicular helper cells for treatment of autoimmune disorders” (priority 2019, dated 2024).
# System: eIF4E
# Experiment: Silencing of eIF4E in OT2 T cells by lentivirus shRNA, adoptive transfer and OVA/Alum
# Format: in vivo, mouse
# Protocol: HEK 293T cells were transfected with pTRIPZ plasmid expressing NS shRNA ([…] (SEQ ID NO: 5)) or eIF4E shRNA ([…] (SEQ ID NO: 6)) along with psPAX2 and pMD2.G in Lipofectamine™ 2000 and Opti-MEM®. Supernatant was collected 48 hours later and centrifuged at 3000×g for 15 minutes at room temperature. Cell debris pellet was discarded and supernatant was incubated with PEG-it™ (System Biosciences) at 4° C. for 24 to 48 hours and then centrifuged for 1500×g for 30 minutes at 4° C. Supernatant was discarded and viral pellet was resuspended in cold PBS and frozen at −80° C. until use.
# CD4^+ T cells were isolated (EasySep™ CD4^+ T cell isolation; StemCell) from OT2 mice (>95% Vβ5.1/5.2) using negative selection. OT2 T cells were activated in mouse T cell media (RPMI containing 10% FBS, 55 μM 2-ME, 25 mM HEPES, 100 uM Sodium pyruvate, 2 mM Glutamax, non-essential amino acids, 100 U/mL penicillin, and 100 μg/mL streptomycin) and soluble 1 μg/mL anti-CD28 with 50 U/mL IL-2 on plates coated with 10 μg/mL anti-CD3 for 3 days. Following activation, cells were spin-transfected at 3×10^6 cells in 1 mL in 6-well plates with lentivirus and 4 μg/mL dextran (Sigma D9885) at 2,000×g for 60 minutes at 30° C. with no acceleration or break (Kurachi et al., “Optimized Retroviral Transduction of Mouse T Cells for in Vivo Assessment of Gene Function,” Nat. Protoc. 12(9):1980-1998 (2017), which is hereby incorporated by reference in its entirety). Following spinoculation, cells were centrifuged and supernatant was decanted and replaced with fresh media. The next day (day 5) 2 μg/mL puromycin (Gibco) and PMA/ionomycin (BioLegend®) are added to the T cells and incubated for 3 days. On day 8, media was replaced and cells were incubated with PMA/ionomycin again for another 3 days. On day 10, it was confirmed that control cells not transfected with virus were >98% dead and 1.5×10^6 OT2 NS or OT2 eIF4Esh were transferred i.p. to CD45.1 mice. One day following adoptive transfer, mice were placed on doxycycline diet (200 mg/kg) and remained on this diet for the entire study. […]
sequence,measurement,setting,value
"GCGTCAAGCAATCGAGATTTG (SEQ ID NO: 6) (expressed or natural sequence) [eIF4E shRNA, doxycycline-inducible eIF4E shRNA expressed from pTRIPZ lentivirus in OT2 T cells]",eIF4E silencing in spleen and blood transduced OT2 T cells (lower eIF4E level),"Dox-inducible shRNA, seven days following Dox addition, vs NS shRNA",3 fold
same,fewer TFH cells formed by OT2 T cells,"day 15 post-transfer, OVA/Alum, vs control NS OT2 cells",3 fold
same,level of OT2 T cells in the spleen,"day 15 post-transfer, vs NS OT2 cells",no impact
